In patent US20080234262A1 (Wyeth, priority 2007, published 2008):

Tests used:
[1] = molecular target: PI3K (Homo sapiens, UniProt P42336); assay: Fluorescence polarization assay for PI3K; type: biochemical; conditions: PI3Kα; read-out: PI3Kα IC50;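 note: PI3K kinase reaction on PIP2 with ATP, 30-60 min, product sensed by GST-GRP with red probe in fluorescence polarization (mP), controls without enzyme and at zero time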
[2] = tested on: prostate line LNCap; assay: In vitro cell culture growth assay (MTS), LNCap; type: cell-based, human; conditions: Homo sapiens, LNCaP, 72 h, LNCap cells, three days after drug treatment
[3] = tested on: breast line MDA468; assay: In vitro cell culture growth assay (MTS), MDA468; type: cell-based, human; conditions: Homo sapiens, 72 h, MDA468 cells, three days after drug treatment
Method in brief: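 MDA468 or LNCap cells received inhibitors one day after plating and were grown for three days. Viable cell density read by MTS conversion, absorbance 490 nm, expressed as percent of control growth versus vehicle-treated cells on the same plate.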

PI3K, sequence (P42336 whole entry): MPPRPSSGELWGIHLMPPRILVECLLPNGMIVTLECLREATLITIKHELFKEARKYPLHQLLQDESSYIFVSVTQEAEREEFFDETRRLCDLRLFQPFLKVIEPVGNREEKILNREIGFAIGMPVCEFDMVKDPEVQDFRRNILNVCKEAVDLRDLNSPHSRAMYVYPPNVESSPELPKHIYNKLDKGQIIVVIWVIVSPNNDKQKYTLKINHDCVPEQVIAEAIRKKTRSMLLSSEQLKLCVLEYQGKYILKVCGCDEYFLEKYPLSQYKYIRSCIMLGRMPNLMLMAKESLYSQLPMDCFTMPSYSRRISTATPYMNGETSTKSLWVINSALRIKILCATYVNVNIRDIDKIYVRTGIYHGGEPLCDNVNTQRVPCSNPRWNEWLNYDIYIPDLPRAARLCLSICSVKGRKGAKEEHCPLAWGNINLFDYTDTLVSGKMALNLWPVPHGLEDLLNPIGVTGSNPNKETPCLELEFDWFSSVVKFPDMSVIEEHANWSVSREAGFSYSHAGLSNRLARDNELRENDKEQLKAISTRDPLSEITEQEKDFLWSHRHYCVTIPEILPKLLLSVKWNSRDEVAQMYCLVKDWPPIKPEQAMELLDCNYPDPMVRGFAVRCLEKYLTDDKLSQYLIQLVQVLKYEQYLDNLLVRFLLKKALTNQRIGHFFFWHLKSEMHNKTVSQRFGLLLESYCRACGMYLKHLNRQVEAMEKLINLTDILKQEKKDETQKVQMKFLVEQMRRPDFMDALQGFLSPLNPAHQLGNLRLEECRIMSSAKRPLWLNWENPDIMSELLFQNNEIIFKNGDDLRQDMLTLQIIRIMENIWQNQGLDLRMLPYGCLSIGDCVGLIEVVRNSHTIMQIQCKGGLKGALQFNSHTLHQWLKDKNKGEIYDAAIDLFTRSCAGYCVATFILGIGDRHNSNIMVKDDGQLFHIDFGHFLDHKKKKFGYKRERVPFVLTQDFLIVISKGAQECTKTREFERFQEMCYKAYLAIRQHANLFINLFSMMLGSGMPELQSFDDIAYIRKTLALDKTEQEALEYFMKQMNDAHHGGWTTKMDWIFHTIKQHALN
PI3K, sequence (P27986 whole entry partner): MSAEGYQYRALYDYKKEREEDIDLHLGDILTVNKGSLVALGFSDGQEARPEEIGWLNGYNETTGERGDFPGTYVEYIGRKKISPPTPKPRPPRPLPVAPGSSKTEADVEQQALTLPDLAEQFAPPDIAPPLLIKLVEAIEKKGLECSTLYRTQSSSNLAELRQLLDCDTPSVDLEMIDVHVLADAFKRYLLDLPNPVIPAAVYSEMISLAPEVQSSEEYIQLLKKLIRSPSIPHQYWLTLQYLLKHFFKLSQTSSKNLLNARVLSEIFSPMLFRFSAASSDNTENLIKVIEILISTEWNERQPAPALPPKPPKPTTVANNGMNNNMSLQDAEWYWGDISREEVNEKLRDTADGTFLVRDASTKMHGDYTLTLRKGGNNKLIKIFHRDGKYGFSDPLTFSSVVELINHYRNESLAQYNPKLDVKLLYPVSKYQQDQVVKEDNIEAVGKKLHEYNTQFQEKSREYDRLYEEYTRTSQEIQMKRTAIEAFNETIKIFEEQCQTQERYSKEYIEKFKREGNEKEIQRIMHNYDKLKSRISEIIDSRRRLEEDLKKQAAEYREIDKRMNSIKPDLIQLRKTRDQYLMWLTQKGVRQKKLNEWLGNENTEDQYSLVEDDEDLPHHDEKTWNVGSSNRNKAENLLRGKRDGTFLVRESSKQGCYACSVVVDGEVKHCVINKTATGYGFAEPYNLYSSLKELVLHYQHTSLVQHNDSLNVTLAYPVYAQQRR

| SMILES | IC50 [1] | IC50 [2] | IC50 [3] |
| --- | --- | --- | --- |
| O=C(Nc1ccc(-c2nc(N3CCOCC3)c3cnn(C4CCN(C(=O)OCc5ccccc5)CC4)c3n2)cc1)Nc1cccnc1 [Compound 881, benzyl 4-(4-morpholin-4-yl-6-{4-[(pyridin-3-ylcarbamoyl)amino]phenyl}-1H-pyrazolo[3,4-d]pyrimidin-1-yl)piperidine-1-carboxylate] | 7 nM | 60 nM | 300 nM |
| CC(C)(C)OC(=O)N1CCC(n2ncc3c(N4CCOCC4)nc(-c4ccc(NC(=O)Nc5cnccn5)cc4)nc32)CC1 [Compound 885, tert-butyl 4-(4-morpholin-4-yl-6-{4-[(pyrazin-2-ylcarbamoyl)amino]phenyl}-1H-pyrazolo[3,4-d]pyrimidin-1-yl)piperidine-1-carboxylate] | 716 nM | 7300 nM | 24000 nM |
| CC(C)(C)OC(=O)N1CCC(n2ncc3c(N4CCOCC4)nc(-c4ccc(NC(=O)Nc5ncccn5)cc4)nc32)CC1 [Compound 886, tert-butyl 4-(4-morpholin-4-yl-6-{4-[(pyrimidin-2-ylcarbamoyl)amino]phenyl}-1H-pyrazolo[3,4-d]pyrimidin-1-yl)piperidine-1-carboxylate] | 1230 nM | 2600 nM | 6700 nM |
| CCOC(=O)N1CCC(n2ncc3c(N4CCOC[C@H]4C)nc(-c4ccc(NC(=O)NCCF)cc4)nc32)CC1 [Compound 890, ethyl 4-{6-(4-{[(2-fluoroethyl)carbamoyl]amino}phenyl)-4-[(3R)-3-methylmorpholin-4-yl]-1H-pyrazolo[3,4-d]pyrimidin-1-yl}piperidine-1-carboxylate] | 4550 nM | 12 nM | 500 nM |
| CCOC(=O)N1CCC(n2ncc3c(N4CCOC[C@H]4C)nc(-c4ccc(NC(=O)Nc5ccccc5)cc4)nc32)CC1 [Compound 891, ethyl 4-(4-[(3R)-3-methylmorpholin-4-yl]-6-{4-[(phenylcarbamoyl)amino]phenyl}-1H-pyrazolo[3,4-d]pyrimidin-1-yl)piperidine-1-carboxylate] | 590 nM | 20 nM | 210 nM |
| CCOC(=O)N1CCC(n2ncc3c(N4CCOC[C@H]4C)nc(-c4ccc(NC(=O)Nc5cccnc5)cc4)nc32)CC1 [Compound 892, ethyl 4-(4-[(3R)-3-methylmorpholin-4-yl]-6-{4-[(pyridin-3-ylcarbamoyl)amino]phenyl}-1H-pyrazolo[3,4-d]pyrimidin-1-yl)piperidine-1-carboxylate] | 453 nM | 0.8 nM | 70 nM |
| CCOC(=O)N1CCC(n2ncc3c(N4CCOC[C@H]4C)nc(-c4ccc(NC(=O)Nc5ccncc5)cc4)nc32)CC1 [Compound 893, ethyl 4-(4-[(3R)-3-methylmorpholin-4-yl]-6-{4-[(pyridin-4-ylcarbamoyl)amino]phenyl}-1H-pyrazolo[3,4-d]pyrimidin-1-yl)piperidine-1-carboxylate] | 517 nM | 5 nM | 180 nM |
| CCOC(=O)N1CCC(n2ncc3c(N4CCOC[C@@H]4C)nc(-c4ccc(NC(=O)Nc5ccccc5)cc4)nc32)CC1 [Compound 896, ethyl 4-(4-[(3S)-3-methylmorpholin-4-yl]-6-{4-[(phenylcarbamoyl)amino]phenyl}-1H-pyrazolo[3,4-d]pyrimidin-1-yl)piperidine-1-carboxylate] | 19 nM | 150 nM | 800 nM |
| CCOC(=O)N1CCC(n2ncc3c(N4CCOC[C@@H]4C)nc(-c4ccc(NC(=O)Nc5cccnc5)cc4)nc32)CC1 [Compound 897, ethyl 4-(4-[(3S)-3-methylmorpholin-4-yl]-6-{4-[(pyridin-3-ylcarbamoyl)amino]phenyl}-1H-pyrazolo[3,4-d]pyrimidin-1-yl)piperidine-1-carboxylate] | 28 nM | 40 nM | 320 nM |
| CCOC(=O)N1CCC(n2ncc3c(N4CCOC[C@@H]4C)nc(-c4ccc(NC(=O)Nc5ccncc5)cc4)nc32)CC1 [Compound 898, ethyl 4-(4-[(3S)-3-methylmorpholin-4-yl]-6-{4-[(pyridin-4-ylcarbamoyl)amino]phenyl}-1H-pyrazolo[3,4-d]pyrimidin-1-yl)piperidine-1-carboxylate] | 18 nM | 40 nM | 380 nM |
| CCOC(=O)N1CCC(n2ncc3c(N4CCOC[C@@H]4C)nc(-c4ccc(NC(=O)Nc5ccc(N6CCOCC6)cc5)cc4)nc32)CC1 [Compound 899, ethyl 4-{4-[(3S)-3-methylmorpholin-4-yl]-6-(4-{[(4-morpholin-4-ylphenyl)carbamoyl]amino}phenyl)-1H-pyrazolo[3,4-d]pyrimidin-1-yl}piperidine-1-carboxylate] | 30 nM | 6.8 nM | 150 nM |

More lines, main results first:

| IC50 [1] | IC50 [2] | SMILES | IC50 [3] |
| --- | --- | --- | --- |
| 20 nM | 30 nM | CNC(=O)Nc1ccc(-c2nc(N3CCOCC3)c3cnn(C4CCN(C(=O)OCc5ccccc5)CC4)c3n2)cc1 [Compound 880, benzyl 4-(6-{4-[(methylcarbamoyl)amino]phenyl}-4-morpholin-4-yl-1H-pyrazolo[3,4-d]pyrimidin-1-yl)piperidine-1-carboxylate] | 220 nM |
| 113 nM | 70 nM | CC(C)(C)OC(=O)N1CCC(n2ncc3c(N4CCOCC4)nc(-c4ccc(NC(=O)Nc5ccon5)cc4)nc32)CC1 [Compound 882, tert-butyl 4-(6-{4-[(isoxazol-3-ylcarbamoyl)amino]phenyl}-4-morpholin-4-yl-1H-pyrazolo[3,4-d]pyrimidin-1-yl)piperidine-1-carboxylate] | 490 nM |
| 160 nM | 270 nM | Cc1cc(NC(=O)Nc2ccc(-c3nc(N4CCOCC4)c4cnn(C5CCN(C(=O)OC(C)(C)C)CC5)c4n3)cc2)on1 [Compound 883, tert-butyl 4-[6-(4-{[(3-methylisoxazol-5-yl)carbamoyl]amino}phenyl)-4-morpholin-4-yl-1H-pyrazolo[3,4-d]pyrimidin-1-yl]piperidine-1-carboxylate] | 1300 nM |
| 264 nM | 260 nM | CC(C)(C)OC(=O)N1CCC(n2ncc3c(N4CCOCC4)nc(-c4ccc(NC(=O)Nc5nccs5)cc4)nc32)CC1 [Compound 884, tert-butyl 4-(4-morpholin-4-yl-6-{4-[(1,3-thiazol-2-ylcarbamoyl)amino]phenyl}-1H-pyrazolo[3,4-d]pyrimidin-1-yl)piperidine-1-carboxylate] | 1600 nM |
| 168 nM | 1200 nM | CCOC(=O)N1CCC(n2ncc3c(N4CCOCC4)nc(-c4ccc(Nc5ncc[nH]5)cc4)nc32)CC1 [Compound 887, ethyl 4-{6-[4-(1H-imidazol-2-ylamino)phenyl]-4-morpholin-4-yl-1H-pyrazolo[3,4-d]pyrimidin-1-yl}piperidine-1-carboxylate] | 2300 nM |
| 1990 nM | 10 nM | CCOC(=O)N1CCC(n2ncc3c(N4CCOC[C@H]4C)nc(-c4ccc(NC(=O)NC)cc4)nc32)CC1 [Compound 888, ethyl 4-(6-{4-[(methylcarbamoyl)amino]phenyl}-4-[(3R)-3-methylmorpholin-4-yl]-1H-pyrazolo[3,4-d]pyrimidin-1-yl)piperidine-1-carboxylate] | 220 nM |
| 4360 nM | 19 nM | CCNC(=O)Nc1ccc(-c2nc(N3CCOC[C@H]3C)c3cnn(C4CCN(C(=O)OCC)CC4)c3n2)cc1 [Compound 889, ethyl 4-(6-{4-[(ethylcarbamoyl)amino]phenyl}-4-[(3R)-3-methylmorpholin-4-yl]-1H-pyrazolo[3,4-d]pyrimidin-1-yl)piperidine-1-carboxylate] | 600 nM |
| 553 nM | 100 nM | CCNC(=O)Nc1ccc(-c2nc(N3CCOC[C@@H]3C)c3cnn(C4CCN(C(=O)OCC)CC4)c3n2)cc1 [Compound 894, ethyl 4-(6-{4-[(ethylcarbamoyl)amino]phenyl}-4-[(3S)-3-methylmorpholin-4-yl]-1H-pyrazolo[3,4-d]pyrimidin-1-yl)piperidine-1-carboxylate] | 960 nM |
| 521 nM | 100 nM | CCOC(=O)N1CCC(n2ncc3c(N4CCOC[C@@H]4C)nc(-c4ccc(NC(=O)NCCF)cc4)nc32)CC1 [Compound 895, ethyl 4-{6-(4-{[(2-fluoroethyl)carbamoyl]amino}phenyl)-4-[(3S)-3-methylmorpholin-4-yl]-1H-pyrazolo[3,4-d]pyrimidin-1-yl}piperidine-1-carboxylate] | 950 nM |
| 6720 nM | 760 nM | CCOC(=O)Nc1ccc(-c2nc(N3CCOCC3)c3cnn(C4CCN(C(=O)OC)CC4)c3n2)cc1 [Compound 900, methyl 4-(6-{4-[(ethoxycarbonyl)amino]phenyl}-4-morpholin-4-yl-1H-pyrazolo[3,4-d]pyrimidin-1-yl)piperidine-1-carboxylate] | > 60000 nM |
| 557 nM | 30 nM | COC(=O)N1CCC(n2ncc3c(N4CCOCC4)nc(-c4ccc(NC(=O)OCCO)cc4)nc32)CC1 [Compound 901, methyl 4-[6-(4-{[(2-hydroxyethoxy)carbonyl]amino}phenyl)-4-morpholin-4-yl-1H-pyrazolo[3,4-d]pyrimidin-1-yl]piperidine-1-carboxylate] | 280 nM |
| 3050 nM | 3300 nM | COCCOC(=O)Nc1ccc(-c2nc(N3CCOCC3)c3cnn(C4CCN(C(=O)OC)CC4)c3n2)cc1 [Compound 902, methyl 4-[6-(4-{[(2-methoxyethoxy)carbonyl]amino}phenyl)-4-morpholin-4-yl-1H-pyrazolo[3,4-d]pyrimidin-1-yl]piperidine-1-carboxylate] | > 60000 nM |
| 132 nM | 3200 nM | COC(=O)N1CCC(n2ncc3c(N4CCOCC4)nc(-c4ccc(NC(=O)OCCN)cc4)nc32)CC1 [Compound 903, methyl 4-[6-(4-{[(2-aminoethoxy)carbonyl]amino}phenyl)-4-morpholin-4-yl-1H-pyrazolo[3,4-d]pyrimidin-1-yl]piperidine-1-carboxylate] | 8000 nM |
